Experimental data as given in ChEMBL document CHEMBL1909046, “DrugMatrix in vitro pharmacology data”.

Columns and labels:
[1] = target: T1, Polyunsaturated fatty acid lipoxygenase ALOX15 (Oryctolagus cuniculus, UniProt P12530); test: biochemical; type: tissue-based, Reticulocytes;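 also: inhibition of 15-lipoxygenase enzyme activity measured with linoleic acid as the substrate; in other assays of this panel Not Active means under 50% inhibition at 10 µM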
T1 sequence (P12530 whole entry): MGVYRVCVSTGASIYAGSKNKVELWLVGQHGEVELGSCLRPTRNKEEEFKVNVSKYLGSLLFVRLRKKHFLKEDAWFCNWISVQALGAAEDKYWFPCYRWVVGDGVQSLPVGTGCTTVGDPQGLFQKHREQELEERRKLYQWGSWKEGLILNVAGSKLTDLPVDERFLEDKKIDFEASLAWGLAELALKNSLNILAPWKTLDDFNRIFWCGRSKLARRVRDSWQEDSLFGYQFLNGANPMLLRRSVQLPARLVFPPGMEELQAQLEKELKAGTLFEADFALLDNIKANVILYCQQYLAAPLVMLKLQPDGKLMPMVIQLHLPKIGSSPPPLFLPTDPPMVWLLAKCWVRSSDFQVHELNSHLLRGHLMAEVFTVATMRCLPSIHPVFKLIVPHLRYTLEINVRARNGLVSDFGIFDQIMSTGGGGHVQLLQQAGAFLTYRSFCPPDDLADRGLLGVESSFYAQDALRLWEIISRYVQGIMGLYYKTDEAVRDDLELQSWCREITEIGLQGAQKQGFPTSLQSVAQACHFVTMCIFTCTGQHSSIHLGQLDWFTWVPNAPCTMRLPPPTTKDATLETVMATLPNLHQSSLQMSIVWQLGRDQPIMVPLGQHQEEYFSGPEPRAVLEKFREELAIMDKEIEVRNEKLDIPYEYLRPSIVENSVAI

Adenosine receptor A2a = Adenosine receptor A2a (Homo sapiens, UniProt P29274); test: DRUGMATRIX: Adenosine A2A radioligand binding (ligand: […]); type: cell membranes, HEK293, Membrane; conditions: hek293; Not Active = under 50% inhibition at 10 µM
[2] = DRUGMATRIX: Sigma2 radioligand binding (ligand: [3H] Ifenprodil); type: cell membranes, Rattus norvegicus, Wistar, Brain, Membrane; conditions: Not Active = under 50% inhibition at 10 µM
[3] = DRUGMATRIX: Glutamate, AMPA radioligand binding (ligand: [3H] AMPA); type: cell membranes, Rattus norvegicus, Wistar, Cerebral cortex, Membrane; conditions: Not Active = under 50% inhibition at 10 µM
Cytochrome P450 3A4 = Cytochrome P450 3A4 (Homo sapiens, UniProt P08684); conditions: bti-tn-5b1-4; also: in other assays of this panel Not Active means under 50% inhibition at 10 µM
Cannabinoid receptor 1 = Cannabinoid receptor 1 (Homo sapiens, UniProt P21554); type: cell membranes, Chem-1, Membrane; conditions: chem-1; also: in other assays of this panel Not Active means under 50% inhibition at 10 µM
Cannabinoid receptor 1, sequence (P21554 whole entry): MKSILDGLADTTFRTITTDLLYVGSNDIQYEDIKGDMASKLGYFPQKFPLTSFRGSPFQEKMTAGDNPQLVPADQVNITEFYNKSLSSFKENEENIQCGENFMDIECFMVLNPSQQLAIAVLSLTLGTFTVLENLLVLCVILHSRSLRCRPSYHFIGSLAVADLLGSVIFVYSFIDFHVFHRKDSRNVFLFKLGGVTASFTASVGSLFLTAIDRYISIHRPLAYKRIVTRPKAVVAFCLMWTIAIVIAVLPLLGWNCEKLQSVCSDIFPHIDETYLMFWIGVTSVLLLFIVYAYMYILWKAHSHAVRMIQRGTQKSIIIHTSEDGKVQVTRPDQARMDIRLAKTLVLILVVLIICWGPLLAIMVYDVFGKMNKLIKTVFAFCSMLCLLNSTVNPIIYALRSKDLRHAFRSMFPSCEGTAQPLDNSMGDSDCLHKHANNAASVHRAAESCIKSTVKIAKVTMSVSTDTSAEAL

Cytochrome P450 3A4, sequence (P08684 whole entry): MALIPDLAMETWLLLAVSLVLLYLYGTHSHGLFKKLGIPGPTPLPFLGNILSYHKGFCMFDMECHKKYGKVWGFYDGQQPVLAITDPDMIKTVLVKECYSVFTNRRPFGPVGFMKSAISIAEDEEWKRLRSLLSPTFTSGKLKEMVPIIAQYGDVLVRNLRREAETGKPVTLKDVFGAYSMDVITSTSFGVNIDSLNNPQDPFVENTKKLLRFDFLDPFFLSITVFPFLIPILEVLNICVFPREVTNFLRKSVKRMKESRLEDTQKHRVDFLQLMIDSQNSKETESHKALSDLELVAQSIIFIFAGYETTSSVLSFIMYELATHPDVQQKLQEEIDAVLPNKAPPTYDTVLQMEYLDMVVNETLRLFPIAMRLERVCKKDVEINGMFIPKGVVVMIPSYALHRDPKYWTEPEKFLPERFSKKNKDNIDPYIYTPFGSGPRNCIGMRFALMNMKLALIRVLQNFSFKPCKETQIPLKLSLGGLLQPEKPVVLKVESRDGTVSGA
Adenosine receptor A2a, sequence (P29274 whole entry): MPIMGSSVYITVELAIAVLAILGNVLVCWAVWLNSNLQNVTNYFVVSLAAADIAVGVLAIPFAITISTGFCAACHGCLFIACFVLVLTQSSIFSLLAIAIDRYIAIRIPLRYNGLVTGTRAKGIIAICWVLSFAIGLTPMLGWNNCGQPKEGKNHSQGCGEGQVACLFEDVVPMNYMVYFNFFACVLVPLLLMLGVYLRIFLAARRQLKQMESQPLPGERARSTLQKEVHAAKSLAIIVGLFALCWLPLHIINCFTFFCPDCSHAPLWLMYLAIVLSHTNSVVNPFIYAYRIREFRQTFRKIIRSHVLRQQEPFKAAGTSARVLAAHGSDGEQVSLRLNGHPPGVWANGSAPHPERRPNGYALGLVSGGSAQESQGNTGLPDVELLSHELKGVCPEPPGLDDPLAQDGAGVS

Structure (SMILES)	IC50 ([1]; reticulocytes)	IC50 (Adenosine receptor A2a)	IC50 [2]	Ki [2]	IC50 [3]	Ki [3]	IC50 (Cytochrome P450 3A4)	Ki (Cytochrome P450 3A4)	IC50 (Cannabinoid receptor 1)	IC50 ([1]; read-out: IC50)
O=C(O)Cc1ccccc1Nc1c(Cl)cccc1Cl [DICLOFENAC]	Not Active	Not Active	Not Active	Not Active	Not Active	Not Active	Not Active	Not Active	Not Active	–
C[C@H]1O[C@@H](O[C@H]2[C@@H](O)C[C@H](O[C@H]3[C@@H](O)C[C@H](O[C@H]4CC[C@@]5(C)[C@H](CC[C@@H]6[C@@H]5CC[C@]5(C)[C@@H](C7=CC(=O)OC7)CC[C@]65O)C4)O[C@@H]3C)O[C@@H]2C)C[C@H](O)[C@@H]1O [DIGITOXIN]	Not Active	Not Active	Not Active	Not Active	Not Active	Not Active	Not Active	Not Active	Not Active	–
CCN1CC(CCN2CCOCC2)C(c2ccccc2)(c2ccccc2)C1=O (configuration not stated) [DOXAPRAM]	Not Active	Not Active	Not Active	Not Active	Not Active	Not Active	Not Active	Not Active	Not Active	–
Cn1c(=O)c2c(ncn2CC2OCCO2)n(C)c1=O [DOXOFYLLINE]	Not Active	Not Active	Not Active	Not Active	Not Active	Not Active	Not Active	Not Active	Not Active	–
COc1cccc2c1C(=O)c1c(O)c3c(c(O)c1C2=O)C[C@@](O)(C(=O)CO)C[C@@H]3O[C@H]1C[C@H](N)[C@H](O)[C@H](C)O1 [DOXORUBICIN]	–	Not Active	Not Active	Not Active	Not Active	Not Active	Not Active	Not Active	Not Active	13.6 µM
COc1cccc2c1C(=O)c1c(O)c3c(c(O)c1C2=O)C[C@@](O)(C(=O)CO)C[C@@H]3O[C@H]1C[C@H](N)[C@@H](O)[C@H](C)O1 [EPIRUBICIN]	Not Active	Not Active	Not Active	Not Active	Not Active	Not Active	Not Active	Not Active	Not Active	–
C[C@]12CC[C@@H]3c4ccc(OC(=O)c5ccccc5)cc4CC[C@H]3[C@@H]1CC[C@@H]2O [ESTRADIOL BENZOATE]	Not Active	Not Active	Not Active	Not Active	Not Active	Not Active	Not Active	Not Active	Not Active	–
C[C@]12CC[C@@H]3c4ccc(O)cc4CC[C@H]3[C@@H]1CC[C@@H]2O [ESTRADIOL]	–	Not Active	Not Active	Not Active	Not Active	Not Active	Not Active	Not Active	Not Active	11.3 µM
CC[C@@H](CO)NCCN[C@@H](CC)CO [ETHAMBUTOL]	Not Active	Not Active	Not Active	Not Active	Not Active	Not Active	Not Active	Not Active	Not Active	–
CC1(C)O[C@@H]2C[C@H]3[C@@H]4C[C@H](F)C5=CC(=O)C=C[C@]5(C)[C@H]4[C@@H](O)C[C@]3(C)[C@]2(C(=O)CO)O1 [FLUNISOLIDE]	Not Active	Not Active	Not Active	Not Active	Not Active	Not Active	Not Active	Not Active	Not Active	–
CC1(C)O[C@@H]2C[C@H]3[C@@H]4C[C@H](F)C5=CC(=O)C=C[C@]5(C)[C@@]4(F)[C@@H](O)C[C@]3(C)[C@]2(C(=O)CO)O1 [FLUOCINOLONE ACETONIDE]	Not Active	Not Active	Not Active	Not Active	Not Active	Not Active	Not Active	Not Active	Not Active	–
CC1(C)O[C@@H]2C[C@H]3[C@@H]4C[C@H](F)C5=CC(=O)CC[C@]5(C)[C@H]4[C@@H](O)C[C@]3(C)[C@]2(C(=O)CO)O1 [FLURANDRENOLIDE]	Not Active	Not Active	Not Active	Not Active	Not Active	Not Active	Not Active	Not Active	Not Active	–
Cc1ccc(S(=O)(=O)NC(=O)NN2CC3CCCC3C2)cc1 (configuration not stated) [GLICLAZIDE]	Not Active	Not Active	Not Active	Not Active	Not Active	Not Active	Not Active	Not Active	Not Active	–
